According to patent US12509444B2, “Compounds and methods for CD73 modulation and indications therefor” (Plexxikon Inc., priority 2019, dated 2025):

Legend:
[1] = biological target: T1, Human CD73 (amino acid residues 27-549) (Homo sapiens, UniProt P21589); test: CD73 enzymatic assay (luciferase-based indirect assay, CellTiter-Glo); assay type: biochemical; settings: 0.4 nM CD73, 150 μM AMP, 1 hour at room temperature
T1 construct: Human CD73 (amino acid residues 27-549); His tag (N); made in house; host or cells: E. coli
T1 sequence (P21589 27-549): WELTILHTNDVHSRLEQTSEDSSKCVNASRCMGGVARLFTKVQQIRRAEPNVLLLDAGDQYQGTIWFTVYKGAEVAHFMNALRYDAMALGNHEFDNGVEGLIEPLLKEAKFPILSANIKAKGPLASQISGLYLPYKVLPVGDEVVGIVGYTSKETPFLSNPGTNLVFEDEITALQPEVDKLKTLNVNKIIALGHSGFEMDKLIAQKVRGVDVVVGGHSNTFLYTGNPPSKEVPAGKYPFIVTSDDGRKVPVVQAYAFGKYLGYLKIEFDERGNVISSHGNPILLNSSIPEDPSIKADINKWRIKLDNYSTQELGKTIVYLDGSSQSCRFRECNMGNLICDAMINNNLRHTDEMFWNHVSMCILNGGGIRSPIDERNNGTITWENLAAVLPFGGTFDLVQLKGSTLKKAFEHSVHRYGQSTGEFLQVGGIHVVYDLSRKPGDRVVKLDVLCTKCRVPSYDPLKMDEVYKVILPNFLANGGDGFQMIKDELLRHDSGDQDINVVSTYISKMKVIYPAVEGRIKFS
Outline: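 Residual AMP inhibits luciferase, so luminescence reports CD73 turnover; read with CellTiter-Glo 2.0 plus 1 μM final ATP, 30 min. Reaction used 0.4 nM N-His CD73 (27-549, E. coli), 150 μM AMP, HEPES pH 7.4 with Tween 20, 1 h at room temperature. IC50 fitted by nonlinear regression.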

[2] = biological target: T2, human CD73 (Homo sapiens, UniProt P21589); test: Inhibitor activity against CD73 in cell based assay (CD73 expressing CHO-K1 cells); settings: CHO-K1 cells expressing human CD73, 150 μM AMP, 4 hours of incubation; read-out: CHO-K1 CELL VARIANT: CD73 IC50
T2 construct: expressed in transfected cells
T2 sequence (P21589 27-549): T1 sequence (P21589 27-549)
Outline: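 Residual supernatant AMP was quantified via CellTiter-Glo luminescence (1 μM ATP added, 30 min, room temperature) after a 4 h exposure of human CD73-expressing CHO-K1 cells to 150 μM AMP plus compound, top final 10 μM, 8 points. IC50 came from nonlinear regression of percent inhibition.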

| Compound | IC50 [1] [µM] | IC50 [2] [µM] |
| --- | --- | --- |
| O=C(NC1CCC2(CC1)CS(=O)(=O)C2)O[C@@H]1CCN(c2cn[nH]c(=O)c2Cl)C1 [P-0328, (R)-1-(5-chloro-6-oxo-1,6-dihydropyridazin-4-yl)pyrrolidin-3-yl (2,2-dioxido-2-thiaspiro[3.5]nonan-7-yl)carbamate] | 0.001 to 10 | 0.001 to 10 |
| O=C(N[C@H]1CC[C@@H](NC2CCCCC2)CC1)O[C@@H]1CCN(c2cn[nH]c(=O)c2Cl)C1 [P-0329, (R)-1-(5-chloro-6-oxo-1,6-dihydropyridazin-4-yl)pyrrolidin-3-yl ((1s,4S)-4-(cyclohexylamino)cyclohexyl) carbamate] | 0.001 to 10 | 0.001 to 10 |
| O=C(N[C@H]1CC[C@@H](Nc2cc(F)ccn2)CC1)O[C@@H]1CCN(c2cn[nH]c(=O)c2Cl)C1 [P-0330, (R)-1-(5-chloro-6-oxo-1,6-dihydropyridazin-4-yl)pyrrolidin-3-yl ((1s,4S)-4-((4-fluoropyridin-2-yl)amino)cyclohexyl)carbamate] | 0.001 to 10 | 0.001 to 10 |
| CC(C)(O)Cn1ncc(N2CC[C@@H](OC(=O)NC3CCC(F)(F)CC3)C2)c(Cl)c1=O [P-0331, (R)-1-(5-chloro-1-(2-hydroxy-2-methylpropyl)-6-oxo-1,6-dihydropyridazin-4-yl)pyrrolidin-3-yl (4,4-difluorocyclohexyl)carbamate] | 0.001 to 10 | 10 to 100 |
| O=C(NC1CCC(F)(F)CC1)O[C@@H]1CCN(c2cnn(CCCO)c(=O)c2Cl)C1 [P-0332, (R)-1-(5-chloro-1-(3-hydroxypropyl)-6-oxo-1,6-dihydropyridazin-4-yl)pyrrolidin-3-yl (4,4-difluorocyclohexyl)carbamate] | 0.001 to 10 | 0.001 to 10 |
| O=C(NC1CCN(C(=O)CO)CC1(F)F)O[C@@H]1CCN(c2cn[nH]c(=O)c2Cl)C1 (stereo partly drawn) [P-0333, (R)-1-(5-chloro-6-oxo-1,6-dihydropyridazin-4-yl)pyrrolidin-3-yl (3,3-difluoro-1-(2-hydroxyacetyl)piperidin-4-yl)carbamate] | 0.001 to 10 | 0.001 to 10 |
| CS(=O)(=O)N[C@H]1CC[C@H](NC(=O)O[C@@H]2CCN(c3cnn(CCO)c(=O)c3Cl)C2)CC1 [P-0334, (R)-1-(5-chloro-1-(2-hydroxyethyl)-6-oxo-1,6-dihydropyridazin-4-yl)pyrrolidin-3-yl ((1r,4R)-4-(methylsulfonamido)cyclohexyl)carbamate] | 0.001 to 10 | 0.001 to 10 |
| C[C@@H]1CCCC[C@H]1NC(=O)O[C@@H]1CCN(c2cn[nH]c(=O)c2Cl)C1 [P-0335, (R)-1-(5-chloro-6-oxo-1,6-dihydropyridazin-4-yl)pyrrolidin-3-yl ((1R,2R)-2-methylcyclohexyl)carbamate] | 0.001 to 10 | 0.001 to 10 |
| C[C@H]1C[C@@H](OC(=O)NC2CCC(F)(F)CC2)CN1c1cn[nH]c(=O)c1Cl [P-0336, (3R,5S)-1-(5-chloro-6-oxo-1,6-dihydropyridazin-4-yl)-5-methylpyrrolidin-3-yl (4,4-difluorocyclohexyl)carbamate] | 0.001 to 10 | 10 to 100 |
| C[C@@H]1C[C@@H](OC(=O)NC2CCC(F)(F)CC2)CN1c1cn[nH]c(=O)c1Cl [P-0337, (3R,5R)-1-(5-chloro-6-oxo-1,6-dihydropyridazin-4-yl)-5-methylpyrrolidin-3-yl (4,4-difluorocyclohexyl)carbamate] | 0.001 to 10 | 10 to 100 |
| O=C(NC1CC(CO)(CCl)C1)O[C@@H]1CCN(c2cn[nH]c(=O)c2Cl)C1 (stereo partly drawn) [P-0338, (R)-1-(5-chloro-6-oxo-1,6-dihydropyridazin-4-yl)pyrrolidin-3-yl (3-(chloromethyl)-3-(hydroxymethyl)cyclobutyl) carbamate] | 0.001 to 10 | 0.001 to 10 |
| O=C(N[C@H]1CC[C@@H](F)CC1)O[C@@H]1CCN(c2cn[nH]c(=O)c2Cl)C1 [P-0339, (R)-1-(5-chloro-6-oxo-1,6-dihydropyridazin-4-yl)pyrrolidin-3-yl ((1s,4S)-4-fluorocyclohexyl)carbamate] | 0.001 to 10 | 0.001 to 10 |
| CC(=O)N1CC[C@H](NC(=O)O[C@@H]2CCN(c3cn[nH]c(=O)c3Cl)C2)C1 [P-0340, (R)-1-(5-chloro-6-oxo-1,6-dihydropyridazin-4-yl)pyrrolidin-3-yl ((S)-1-acetylpyrrolidin-3-yl)carbamate] | 0.001 to 10 | 0.001 to 10 |
| CS(=O)(=O)N1CC[C@H](NC(=O)O[C@@H]2CCN(c3cn[nH]c(=O)c3Cl)C2)C1 [P-0341, (R)-1-(5-chloro-6-oxo-1,6-dihydropyridazin-4-yl)pyrrolidin-3-yl ((S)-1-(methylsulfonyl)pyrrolidin-3-yl)carbamate] | 0.001 to 10 | 10 to 100 |
| O=C(N[C@H]1CCN(C(=O)c2ccccc2)C1)O[C@@H]1CCN(c2cn[nH]c(=O)c2Cl)C1 [P-0342, (R)-1-(5-chloro-6-oxo-1,6-dihydropyridazin-4-yl)pyrrolidin-3-yl ((S)-1-benzoylpyrrolidin-3-yl)carbamate] | 0.001 to 10 | 10 to 100 |
| O=C(N[C@H]1CCN(C(=O)NC2CCCCC2)C1)O[C@@H]1CCN(c2cn[nH]c(=O)c2Cl)C1 [P-0343, (R)-1-(5-chloro-6-oxo-1,6-dihydropyridazin-4-yl)pyrrolidin-3-yl ((S)-1-(cyclohexylcarbamoyl)pyrrolidin-3-yl)carbamate] | 0.001 to 10 | 10 to 100 |
| Cc1ccc(C(=O)N[C@H]2CC[C@H](NC(=O)O[C@@H]3CCN(c4cn[nH]c(=O)c4Cl)C3)CC2)cc1 [P-0344, (R)-1-(5-chloro-6-oxo-1,6-dihydropyridazin-4-yl)pyrrolidin-3-yl ((1r,4R)-4-(4-methylbenzamido)cyclohexyl) carbamate] | 0.001 to 10 | 0.001 to 10 |
| O=C(Nc1ccc(C(F)(F)F)cc1)N[C@H]1CC[C@H](NC(=O)O[C@@H]2CCN(c3cn[nH]c(=O)c3Cl)C2)CC1 [P-0345, (R)-1-(5-chloro-6-oxo-1,6-dihydropyridazin-4-yl)pyrrolidin-3-yl ((1r,4R)-4-(3-(4-(trifluoromethyl)phenyl)ureido)cyclohexyl)carbamate] | 0.001 to 10 | 0.001 to 10 |
| O=C(Nc1cccc(C(=O)O)c1)N[C@H]1CC[C@H](NC(=O)O[C@@H]2CCN(c3cn[nH]c(=O)c3Cl)C2)CC1 [P-0346, 3-(3-((1R,4r)-4-(((((R)-1-(5-chloro-6-oxo-1,6-dihydropyridazin-4-yl)pyrrolidin-3-yl)oxy)carbonyl)amino)cyclohexyl)ureido)benzoic acid] | 0.001 to 10 | 0.001 to 10 |
| O=C(Nc1ccc(C(=O)O)cc1)N[C@H]1CC[C@H](NC(=O)O[C@@H]2CCN(c3cn[nH]c(=O)c3Cl)C2)CC1 [P-0347, 4-(3-((1R,4r)-4-(((((R)-1-(5-chloro-6-oxo-1,6-dihydropyridazin-4-yl)pyrrolidin-3-yl)oxy)carbonyl)amino)cyclohexyl)ureido)benzoic acid] | 0.001 to 10 | 0.001 to 10 |
| COc1c(N2CC[C@@H](OC(=O)NC3CCC(F)(F)CC3)C2)cn[nH]c1=O [P-0348, (R)-1-(5-methoxy-6-oxo-1,6-dihydropyridazin-4-yl)pyrrolidin-3-yl (4,4-difluorocyclohexyl)carbamate] | 0.001 to 10 | 10 to 100 |
| O=C(NC12CCC(CC1)C2)O[C@@H]1CCN(c2cn[nH]c(=O)c2Cl)C1 [P-0349, (R)-1-(5-chloro-6-oxo-1,6-dihydropyridazin-4-yl)pyrrolidin-3-yl bicyclo[2.2.1]heptan-1-ylcarbamate] | 0.001 to 10 | 0.001 to 10 |
